The values that follow come from PubChem BioAssay (NCI).

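Growth conditions: 96-well plates. Treatment: test compound, 48 hours, 5 concentrations. Analysis: linear interpolation between bracketing concentrations; unreached endpoints set to highest concentration. GI50 = concentration required for 50% inhibition of growth. TGI: concentration producing complete growth inhibition.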

Among the test systems are HCT-15 colon; HOP-62 NSCLC; HT29 colon; NCI-H226 lung; NCI-H460 lung; RPMI-8226 leukemia; SK-MEL-5 melanoma; MDA-MB-231 breast; MDA-MB-435.
Holding throughout (assay): NCI-60 cell line screen, 48 h

For `CCN(CC)CC(=O)/C=C/c1ccc(C)cc1`, the TGI in the experiment on HCT-15 colon is 46 µM; with HOP-62 NSCLC it was > 100 µM; with HT29 colon, 45.1 µM; in the experiment on NCI-H226 lung, 53.8 µM; with NCI-H460 lung it was 46 µM; in the experiment on RPMI-8226 leukemia, > 100 µM. Further, the TGI in the experiment on SK-MEL-5 melanoma was determined as 33.1 µM.
Regarding `NC1CCCCC1N.O=C([O-])P(=O)([O-])[O-].[Na+].[Pt+4]` (stereo not given), the GI50 in the experiment with HOP-62 NSCLC is > 100 µM; in the experiment with HT29 colon, > 100 µM; in the experiment with NCI-H226 lung, > 100 µM; in the experiment on NCI-H460 lung, 55.5 µM; with RPMI-8226 leukemia it was 22.2 µM. Further, the TGI in the experiment with HOP-62 NSCLC, with HT29 colon, in the experiment on NCI-H226 lung, with NCI-H460 lung and with RPMI-8226 leukemia was > 100 µM throughout.
Consider `O=c1[nH]c(-c2ccccc2)nc2ccc(Cl)cc12`, for which the TGI in the experiment on HCT-15 colon, in the experiment with HT29 colon, in the experiment on NCI-H226 lung and in the experiment on RPMI-8226 leukemia was > 100 µM in each case.
Take `O=S(=O)([O-])[O-].[Cl-].[NH2-].[NH2-].[NH2-].[NH2-].[Ru+3].c1ccc(-c2cccnc2)cc1`: the GI50 with HCT-15 colon, with HOP-62 NSCLC, in the experiment on HT29 colon, in the experiment with NCI-H226 lung, in the experiment on NCI-H460 lung and in the experiment on RPMI-8226 leukemia was > 100 µM in each case. Besides, the GI50 with SK-MEL-5 melanoma is > 100 µM. Besides, the TGI in the experiment with HCT-15 colon, in the experiment with HOP-62 NSCLC, with HT29 colon, with NCI-H226 lung, in the experiment on NCI-H460 lung and in the experiment on RPMI-8226 leukemia was > 100 µM throughout. Also, the TGI in the experiment with SK-MEL-5 melanoma was > 100 µM.
As for `Cc1cc2c(cc1C)[n+](=O)c(C(=O)/C=C/c1ccc(Cl)cc1)c(C)n2[O-]`, the TGI in the experiment on HCT-15 colon was > 100 µM; in the experiment with HOP-62 NSCLC, 68.7 µM; in the experiment with HT29 colon, 95.5 µM; in the experiment on NCI-H226 lung, > 100 µM; in the experiment with NCI-H460 lung, 62.7 µM; with RPMI-8226 leukemia it was 60.5 µM. Further, the TGI with SK-MEL-5 melanoma was 58.7 µM.
In the case of `COc1cc(N=Nc2ccccc2)cc(/C=N\[N-]C(N)=S)c1[O-].COc1cc(N=Nc2ccccc2)cc(/C=N\[N-]C(N)=S)c1[O-].[Fe+4]`, the GI50 in the experiment with HOP-62 NSCLC is 23.4 µM; with HT29 colon, 34.9 µM; with NCI-H226 lung, > 100 µM; in the experiment with RPMI-8226 leukemia it was 18.2 µM; in the experiment on SK-MEL-5 melanoma, 13.5 µM. The TGI with HOP-62 NSCLC was 89.9 µM; in the experiment on HT29 colon, > 100 µM; in the experiment with NCI-H226 lung, > 100 µM; in the experiment with RPMI-8226 leukemia it was > 100 µM; with SK-MEL-5 melanoma, 49 µM.
For the molecule `O=C(O)CNS(=O)(=O)c1ccc(NC(=O)c2ccc(F)cc2)cc1`, the TGI with HCT-15 colon, in the experiment with HT29 colon, with NCI-H460 lung, in the experiment with RPMI-8226 leukemia and with SK-MEL-5 melanoma was > 100 µM throughout.
For `O=C1CCC2CCc3cccc4oc1c2c34` (stereo not given), the TGI in the experiment with HCT-15 colon, with HOP-62 NSCLC, with HT29 colon, with NCI-H460 lung, with RPMI-8226 leukemia and in the experiment with SK-MEL-5 melanoma was > 100 µM throughout.
With `CC1=C(C)CC2(SC1)C(=O)c1ccccc1C2=O`, the TGI in the experiment with HCT-15 colon, with HOP-62 NSCLC, in the experiment on HT29 colon, in the experiment on NCI-H226 lung, in the experiment on NCI-H460 lung and with RPMI-8226 leukemia was > 100 µM each time. In the experiment with SK-MEL-5 melanoma, the TGI is > 100 µM.
Take `NS(=O)(=O)c1ccc(C2C3=C(CCCC3=O)OC3=C2C(=O)c2ccccc2C3=O)cc1` (stereo not given): the GI50 was 1.33 µM in the experiment with HCT-15 colon; 1.49 µM in the experiment with HOP-62 NSCLC; 1.07 µM in the experiment on HT29 colon; 0.318 µM in the experiment with MDA-MB-231 breast; 0.19 µM in the experiment with MDA-MB-435; 1.75 µM with NCI-H226 lung. Further, the figures for the GI50 with NCI-H460 lung, in the experiment on RPMI-8226 leukemia and in the experiment on SK-MEL-5 melanoma were 0.589 µM, 0.41 µM and 1.18 µM, respectively. The TGI in the experiment with HCT-15 colon turned out to be 3.46 µM; in the experiment with HOP-62 NSCLC, 2.91 µM; in the experiment with HT29 colon it was 5.17 µM; in the experiment with MDA-MB-231 breast it was 0.938 µM; in the experiment with MDA-MB-435, 0.357 µM; with NCI-H226 lung, 3.36 µM. The TGI in the experiment with NCI-H460 lung is 2.12 µM; in the experiment on RPMI-8226 leukemia, 1.99 µM; in the experiment on SK-MEL-5 melanoma, 2.43 µM.
As for `CN(C)c1ccc(/C=C/C(=O)C(C)(C)C)cc1Br`, the TGI with HCT-15 colon was 48.6 µM; with HOP-62 NSCLC, > 100 µM; in the experiment on HT29 colon it was > 100 µM; in the experiment on NCI-H460 lung, > 100 µM; in the experiment on RPMI-8226 leukemia it was 58.7 µM; in the experiment with SK-MEL-5 melanoma, 35.5 µM.
Consider `C=C1C(=O)O[C@H]2[C@H]1CC/C(CNC(=O)/C=C/c1cccc(OC)c1)=C\CC[C@@]1(C)O[C@@H]21`, for which the GI50 is 1.05 µM with HCT-15 colon; 3.17 µM in the experiment with HOP-62 NSCLC; 1.22 µM in the experiment with HT29 colon; 1.79 µM in the experiment with MDA-MB-231 breast; 1.53 µM in the experiment with MDA-MB-435; 1.82 µM with NCI-H226 lung. Further, the GI50 in the experiment with NCI-H460 lung was 2.51 µM; in the experiment on RPMI-8226 leukemia it was 1.31 µM; with SK-MEL-5 melanoma it was 1.69 µM. The TGI was determined as 2.54 µM in the experiment with HCT-15 colon; 14.8 µM in the experiment with HOP-62 NSCLC; 2.81 µM in the experiment on HT29 colon; 4.07 µM in the experiment on MDA-MB-231 breast; 5.04 µM in the experiment on MDA-MB-435; 4.84 µM in the experiment with NCI-H226 lung. Also, the TGI with NCI-H460 lung was 7.05 µM; in the experiment on RPMI-8226 leukemia, 4.97 µM; in the experiment on SK-MEL-5 melanoma it was 3.18 µM.
For the molecule `Nc1ccc(-c2nc3ccccc3[nH]2)c(O)c1`, the GI50 was > 100 µM in the experiment with HCT-15 colon; 60.5 µM in the experiment with HOP-62 NSCLC; 41 µM in the experiment with HT29 colon; 17 µM with MDA-MB-231 breast; 28.2 µM in the experiment with MDA-MB-435; 35.5 µM with NCI-H226 lung. Besides, the GI50 in the experiment on NCI-H460 lung was 30.4 µM; with RPMI-8226 leukemia, 17 µM; in the experiment with SK-MEL-5 melanoma it was 21.3 µM. In addition, the TGI in the experiment on HCT-15 colon was > 100 µM; in the experiment on HOP-62 NSCLC, > 100 µM; in the experiment with HT29 colon, > 100 µM; in the experiment on MDA-MB-231 breast, 47.3 µM; in the experiment with MDA-MB-435 it was 64.6 µM; in the experiment on NCI-H226 lung, > 100 µM. For the same molecule, the results for the TGI with NCI-H460 lung, in the experiment with RPMI-8226 leukemia and in the experiment on SK-MEL-5 melanoma were > 100 µM, 52.3 µM and 72.3 µM, respectively.
